Assays:
NSG mice = assay: Transplantation of gene targeted CD34+ cells in NSG mice, engraftment of human CD45+ and GFP+ cells; type: in vivo; conditions: for effect on in vivo differentiation of treated cells: addition to the in vitro culture, PB 14 weeks post-transplant; for fraction of mice successfully engrafted with GFP+ cells: delayed treatment and addition of SR1 and dmPGE2 used in combination
From the text: For the in vivo studies, 8- to 11-week-old NOD-SCID-IL2Rg^−/− (NSG) mice were purchased from the Jackson laboratory. The experimental protocol was approved by the Institutional Animal Care and Use Committee of the San Raffaele Scientific Institute. At day 4 of culture, 3×10^5 gene targeted CD34+ cells (or 7.5×10^5 BM derived cells) were infused intravenously into the mice after sub-lethal irradiation (200 cGy).MDA3 human mammary carcinoma cell line was obtained by stable transduction of MDA-MB 231 cells with lentiviral vectors expressing the human cytokines GMCSF, IL-7 and IL-15 from the PGK promoter. 4×10^6MDA3 cells were implanted orthotopically in the mammary fat pad of NSG mice 14 weeks after CD34+ cells transplantation or in age-matched untransplanted NSG mice. Human CD45+ engraftment was followed by serial collections of blood from the mouse tail and, at the end of the experiment (12-23 weeks after transplantation), BM, spleen and thymus cells were harvested and analyzed. HumanT lymphocytes were enriched from mouse splenocytes using magnetic beads conjugated to anti human CD3 and CD28 antibodies (Dynabeads human T-activator CD3/CD28; Invitrogen), following the manufacturer instructions, and grown in Iscove's Modified Dulbecco's Media (IMDM) (GIBCO-BRL) supplemented with penicillin, streptomycin, 10% FBS and 5 ng/ml each of IL-7 and IL-15 (PeproTech).

CD34+ cells = assay: Gene targeting of CD34+ cell subpopulations in culture supplemented with SR1 and/or dmPGE2; type: cell-based, human
Description: CD34+ cells were either freshly purified from human cord blood after obtaining informed consent and upon approval by the San Raffaele Hospital Bioethical Committee, or purchased frozen from Lonza. 10^6 CD34+ cells/ml were stimulated in serum-free StemSpan medium (StemCell Technologies) supplemented with penicillin, streptomycin and human early-acting cytokines (stem cell factor (SCF) 100 ng/ml, Flt3 ligand (Flt3-L) 100 ng/ml, thrombopoietin (TPO) 20 ng/ml, and interleukin 6 (IL-6) 20 ng/ml; all purchased from Peprotech) for 24 or 48 hr and then infected with IDLVs at multiplicity of infection (MOI) 100-500. The following day the cells were electroporated with 175 μg/ml ZFNs encoding mRNAs (P3 Primary Cell 4D-Nucleofector X Kit, program EO 100; Lonza). For some experiments, the following drugs were supplemented to the culture media: 1 μM SR1 (Novartis) added at every medium change, and 10 μM PGE2 (Cayman) added at the beginning of the culture, 1 hour before and just after electroporation. For CFC assays, 800 cells were plated one day after electroporation in methylcellulose-based medium (MethoCult H4434, StemCell Technologies). Two weeks after plating, colonies were counted and identified according to morphological criteria.
Because cell cycle progression is a major requirement of HDR, and activation of the more primitive progenitors may require longer stimulation, we postponed the gene targeting procedure to the third day of culture (FIG. 3C). At this time, the cells are also likely to become more permissive to LV transduction. However, since increasing times of culture lead to increased differentiation, we also tested addition of the Aryl Hydrocarbon Receptor Antagonist (StemRegenin 1, SR1) and/or 16.16 dimethyl-prostaglandin E2 (dmPGE2) to the culture medium to promote progenitor expansion in conditions that have been reported to preserve the stemness of these cells (FIG. 3D).

[1] = 1 μM SR1 added to culture medium

## CCCCC(C)(C)[C@H](O)/C=C/[C@H]1[C@H](O)CC(=O)[C@@H]1C/C=C\CCCC(=O)O [dmPGE2, 16.16 dimethyl-prostaglandin E2]
NSG mice
  effect on in vivo differentiation of treated cells: did not significantly affect
  fraction of mice successfully engrafted with GFP+ cells: 100%
CD34+ cells
  apoptotic rate of cells treated with or without dmPGE2: did not observe significant differences
CD34+ cells; dmPGE2 added to culture, additive effects with SR1
  effect on percentage of GFP+ cells in all subpopulations: further increased

## CC(C)n1cnc2c(NCCc3ccc(O)cc3)nc(-c3csc4ccccc34)nc21 [SR1, StemRegenin 1]
NSG mice
  effect on in vivo differentiation of treated cells: did not significantly affect
  fraction of mice successfully engrafted with GFP+ cells: 100%
NSG mice; after SR1 addition to the culture
  total human cell engraftment in the mice: significantly increased
CD34+ cells; [1]
  effect on overall yield of GFP+ CFC and early (CD133+) progenitors: increased
  effect on percentage of GFP+ cells within each subpopulation: slightly reduced
CD34+ cells; SR1 treatment
  effect on targeting efficiency: did not significantly influence
  effect on the more primitive fractions in culture: helped maintain the more primitive fractions in culture

Reference: patent US10117899B2, “Delivery methods and compositions for nuclease-mediated genome engineering in hematopoietic stem cells” (Sangamo BioSciences, Inc., priority 2013, dated 2018)
